# Experimental data reported in PubChem BioAssay AID1963847 (Molecular Pharmacology Branch, DTP, NCI, 2024).
# System: 415267-285-R-J2-PDC complex spheroid viability
# Assay: Anticancer human tumor 415267-285-R-J2-PDC patient-derived breast carcinoma cell line growth inhibition [POLQ]
# Settings: for IC50: curve of first compound; for viability, T/C: stronger effect = lower value
# Method in brief: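 Growth inhibition in 3D: complex spheroids (tumor PDC, HUVEC, MSC) treated with POLQ inhibitor combinations; where Cmax unknown, highest tested concentration 10 microM, except SN-38 at 1 microM.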
# [1] = second compound 0.0316 µM, first compound 0.0316 µM
# [2] = second compound 0.0316 µM, first compound 0.1 µM
# [3] = second compound 0.0316 µM, first compound 0.316 µM
# [4] = second compound 0.0316 µM, first compound 1 µM
# [5] = second compound 0.0316 µM, first compound 3.16 µM
# [6] = second compound 0.0316 µM, first compound 10 µM
# [7] = second compound 0.1 µM, first compound 0.0316 µM
# [8] = second compound 0.1 µM, first compound 0.1 µM
# [9] = second compound 0.1 µM, first compound 0.316 µM
# [10] = second compound 0.1 µM, first compound 1 µM
# [11] = second compound 0.1 µM, first compound 3.16 µM
# [12] = second compound 0.1 µM, first compound 10 µM
# [13] = second compound 0.316 µM, first compound 0.0316 µM
# [14] = second compound 0.316 µM, first compound 0.1 µM
# [15] = second compound 0.316 µM, first compound 0.316 µM
# [16] = second compound 0.316 µM, first compound 1 µM
# [17] = second compound 0.316 µM, first compound 3.16 µM
# [18] = second compound 0.316 µM, first compound 10 µM
# [19] = second compound 1 µM, first compound 0.0316 µM
# [20] = second compound 1 µM, first compound 0.1 µM
# [21] = second compound 1 µM, first compound 0.316 µM
# [22] = second compound 1 µM, first compound 1 µM
# [23] = second compound 1 µM, first compound 3.16 µM
# [24] = second compound 1 µM, first compound 10 µM
# [25] = second compound 3.16 µM, first compound 0.0316 µM
# [26] = second compound 3.16 µM, first compound 0.1 µM
# [27] = second compound 3.16 µM, first compound 0.316 µM
# [28] = second compound 3.16 µM, first compound 1 µM
# [29] = second compound 3.16 µM, first compound 3.16 µM
# [30] = second compound 3.16 µM, first compound 10 µM
# [31] = second compound 10 µM, first compound 0.0316 µM
# [32] = second compound 10 µM, first compound 0.1 µM
# [33] = second compound 10 µM, first compound 0.316 µM
# [34] = second compound 10 µM, first compound 1 µM
# [35] = second compound 10 µM, first compound 3.16 µM
# [36] = second compound 10 µM, first compound 10 µM
# 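Note: spheroids exposed to compounds for one week before readout.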
# 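Throughout, for viability, T/C: luminescence used as stand-in measure of viable cells; 100% = DMSO vehicle control viability.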
smiles,measurement,setting,value
C#Cc1c(F)ccc2cc(O)cc(-c3ncc4c(N5CC6CCC(C5)N6)nc(OCC56CCCN5CC(F)C6)nc4c3F)c12 (stereo not given) + Nc1ccc(C#CCN(C(=O)Cc2ncc(C(F)(F)F)cc2C(F)(F)F)c2ccc(F)cc2)nn1,IC50,second compound 0.0316 µM,> 10 µM
same,IC50,second compound 0.1 µM,> 10 µM
same,IC50,second compound 0.316 µM,> 10 µM
same,IC50,second compound 1 µM,> 10 µM
same,IC50,second compound 3.16 µM,> 10 µM
same,IC50,second compound 10 µM,> 10 µM
same,"viability, T/C",[1],105%
same,"viability, T/C",[2],110%
same,"viability, T/C",[3],84%
same,"viability, T/C",[4],101%
same,"viability, T/C",[5],97%
same,"viability, T/C",[6],99.5%
same,"viability, T/C",[7],100%
same,"viability, T/C",[8],96%
same,"viability, T/C",[9],94.4%
same,"viability, T/C",[10],98.6%
same,"viability, T/C",[11],97.3%
same,"viability, T/C",[12],92.3%
same,"viability, T/C",[13],114%
same,"viability, T/C",[14],110%
same,"viability, T/C",[15],113%
same,"viability, T/C",[16],111%
same,"viability, T/C",[17],98.5%
same,"viability, T/C",[18],102%
same,"viability, T/C",[19],105%
same,"viability, T/C",[20],102%
same,"viability, T/C",[21],95%
same,"viability, T/C",[22],112%
same,"viability, T/C",[23],96.1%
same,"viability, T/C",[24],105%
same,"viability, T/C",[25],113%
same,"viability, T/C",[26],106%
same,"viability, T/C",[27],105%
same,"viability, T/C",[28],106%
same,"viability, T/C",[29],115%
same,"viability, T/C",[30],111%
same,"viability, T/C",[31],97.7%
same,"viability, T/C",[32],103%
same,"viability, T/C",[33],102%
same,"viability, T/C",[34],96.4%
same,"viability, T/C",[35],102%
same,"viability, T/C",[36],116%
CC(C)n1c(=O)n(C)c2cnc3cc(F)c(-c4ccc(OCCCN5CCCCC5)nc4)cc3c21 + Nc1ccc(C#CCN(C(=O)Cc2ncc(C(F)(F)F)cc2C(F)(F)F)c2ccc(F)cc2)nn1,IC50,second compound 0.0316 µM,> 10 µM
same,IC50,second compound 0.1 µM,> 10 µM
same,IC50,second compound 0.316 µM,> 10 µM
same,IC50,second compound 1 µM,> 10 µM
same,IC50,second compound 3.16 µM,> 10 µM
same,IC50,second compound 10 µM,> 10 µM
same,"viability, T/C",[1],102%
same,"viability, T/C",[2],107%
same,"viability, T/C",[3],105%
same,"viability, T/C",[4],122%
same,"viability, T/C",[5],104%
same,"viability, T/C",[6],103%
same,"viability, T/C",[7],103%
same,"viability, T/C",[8],105%
same,"viability, T/C",[9],108%
same,"viability, T/C",[10],96.1%
same,"viability, T/C",[11],101%
same,"viability, T/C",[12],97.6%
same,"viability, T/C",[13],102%
same,"viability, T/C",[14],113%
same,"viability, T/C",[15],101%
same,"viability, T/C",[16],105%
same,"viability, T/C",[17],103%
same,"viability, T/C",[18],108%
same,"viability, T/C",[19],102%
same,"viability, T/C",[20],105%
same,"viability, T/C",[21],96.4%
same,"viability, T/C",[22],101%
same,"viability, T/C",[23],111%
same,"viability, T/C",[24],108%
same,"viability, T/C",[25],101%
same,"viability, T/C",[26],107%
same,"viability, T/C",[27],110%
same,"viability, T/C",[28],111%
same,"viability, T/C",[29],108%
same,"viability, T/C",[30],115%
same,"viability, T/C",[31],108%
same,"viability, T/C",[32],109%
same,"viability, T/C",[33],117%
same,"viability, T/C",[34],126%
same,"viability, T/C",[35],106%
same,"viability, T/C",[36],117%
CCc1cc2c(N3CCc4c(cc(Cn5ccnc5)cc4-c4cn(C)nc4C(F)(F)F)C3=O)ccnc2c(OC)n1 + Nc1ccc(C#CCN(C(=O)Cc2ncc(C(F)(F)F)cc2C(F)(F)F)c2ccc(F)cc2)nn1,IC50,second compound 0.0316 µM,> 10 µM
same,IC50,second compound 0.1 µM,> 10 µM
same,IC50,second compound 0.316 µM,> 10 µM
same,IC50,second compound 1 µM,> 10 µM
same,IC50,second compound 3.16 µM,> 10 µM
same,IC50,second compound 10 µM,> 10 µM
same,"viability, T/C",[1],95.8%
same,"viability, T/C",[2],92.1%
same,"viability, T/C",[3],78.2%
same,"viability, T/C",[4],87.2%
same,"viability, T/C",[5],89.7%
same,"viability, T/C",[6],70.8%
same,"viability, T/C",[7],94.3%
same,"viability, T/C",[8],88.4%
same,"viability, T/C",[9],79.6%
same,"viability, T/C",[10],85.3%
same,"viability, T/C",[11],92.9%
same,"viability, T/C",[12],68.1%
same,"viability, T/C",[13],94.2%
same,"viability, T/C",[14],90.7%
same,"viability, T/C",[15],75.7%
same,"viability, T/C",[16],84.1%
same,"viability, T/C",[17],86.4%
same,"viability, T/C",[18],71.4%
same,"viability, T/C",[19],85.9%
same,"viability, T/C",[20],96%
same,"viability, T/C",[21],81.8%
same,"viability, T/C",[22],82.1%
same,"viability, T/C",[23],87.8%
same,"viability, T/C",[24],70.7%
same,"viability, T/C",[25],90.4%
same,"viability, T/C",[26],87.3%
same,"viability, T/C",[27],78.8%
same,"viability, T/C",[28],88.8%
same,"viability, T/C",[29],78.2%
same,"viability, T/C",[30],73.3%
same,"viability, T/C",[31],94.9%
same,"viability, T/C",[32],83.8%
same,"viability, T/C",[33],90.4%
same,"viability, T/C",[34],87.9%
same,"viability, T/C",[35],77.5%
same,"viability, T/C",[36],68.2%
COc1cc2cc(C(=O)CCC(=O)O)sc2cc1OC + Nc1ccc(C#CCN(C(=O)Cc2ncc(C(F)(F)F)cc2C(F)(F)F)c2ccc(F)cc2)nn1,IC50,second compound 0.0316 µM,> 10 µM
same,IC50,second compound 0.1 µM,> 10 µM
same,IC50,second compound 0.316 µM,> 10 µM
same,IC50,second compound 1 µM,> 10 µM
same,IC50,second compound 3.16 µM,> 10 µM
same,IC50,second compound 10 µM,> 10 µM
same,"viability, T/C",[1],108%
same,"viability, T/C",[2],95.4%
same,"viability, T/C",[3],93.7%
same,"viability, T/C",[4],97.3%
same,"viability, T/C",[5],93.8%
same,"viability, T/C",[6],97.3%
same,"viability, T/C",[7],111%
same,"viability, T/C",[8],105%
same,"viability, T/C",[9],94.2%
same,"viability, T/C",[10],98.2%
same,"viability, T/C",[11],92.5%
same,"viability, T/C",[12],95.1%
same,"viability, T/C",[13],111%
same,"viability, T/C",[14],103%
same,"viability, T/C",[15],91.8%
same,"viability, T/C",[16],89.9%
same,"viability, T/C",[17],98.9%
same,"viability, T/C",[18],85.9%
same,"viability, T/C",[19],103%
same,"viability, T/C",[20],88.9%
same,"viability, T/C",[21],96.6%
same,"viability, T/C",[22],102%
same,"viability, T/C",[23],96.5%
same,"viability, T/C",[24],91.2%
same,"viability, T/C",[25],105%
same,"viability, T/C",[26],92%
same,"viability, T/C",[27],101%
same,"viability, T/C",[28],98.9%
same,"viability, T/C",[29],94.3%
same,"viability, T/C",[30],109%
same,"viability, T/C",[31],101%
same,"viability, T/C",[32],97.4%
same,"viability, T/C",[33],100%
same,"viability, T/C",[34],106%
same,"viability, T/C",[35],97.9%
same,"viability, T/C",[36],96.5%
COc1ccc([C@@H](O)c2cc(-c3ncnc4cc(N5CCOCC5)ccc34)c(F)cc2Cl)nn1 + Nc1ccc(C#CCN(C(=O)Cc2ncc(C(F)(F)F)cc2C(F)(F)F)c2ccc(F)cc2)nn1,IC50,second compound 0.0316 µM,> 10 µM
same,IC50,second compound 0.1 µM,> 10 µM
same,IC50,second compound 0.316 µM,> 10 µM
same,IC50,second compound 1 µM,> 10 µM
same,IC50,second compound 3.16 µM,> 10 µM
same,IC50,second compound 10 µM,> 10 µM
same,"viability, T/C",[1],94.4%
same,"viability, T/C",[2],99.9%
same,"viability, T/C",[3],100%
same,"viability, T/C",[4],106%
same,"viability, T/C",[5],93%
same,"viability, T/C",[6],58.2%
same,"viability, T/C",[7],108%
same,"viability, T/C",[8],109%
same,"viability, T/C",[9],84.7%
same,"viability, T/C",[10],92.4%
same,"viability, T/C",[11],95.2%
same,"viability, T/C",[12],53.2%
same,"viability, T/C",[13],107%
same,"viability, T/C",[14],103%
same,"viability, T/C",[15],107%
same,"viability, T/C",[16],110%
same,"viability, T/C",[17],84.4%
same,"viability, T/C",[18],58%
same,"viability, T/C",[19],98.7%
same,"viability, T/C",[20],88%
same,"viability, T/C",[21],104%
same,"viability, T/C",[22],102%
same,"viability, T/C",[23],91.2%
same,"viability, T/C",[24],51.6%
same,"viability, T/C",[25],102%
same,"viability, T/C",[26],104%
same,"viability, T/C",[27],108%
same,"viability, T/C",[28],106%
same,"viability, T/C",[29],93.3%
same,"viability, T/C",[30],69.1%
same,"viability, T/C",[31],105%
same,"viability, T/C",[32],107%
same,"viability, T/C",[33],102%
same,"viability, T/C",[34],102%
same,"viability, T/C",[35],89.3%
same,"viability, T/C",[36],64.5%
